This passage reports IC50 results from patent US9790169B2, “IDO inhibitors” (BRISTOL-MYERS SQUIBB COMPANY, priority 2015, dated 2017).

Test [1] has as its target T1, human IDO1 (Homo sapiens, UniProt P14902). The experiment in a line: Assessment of human IDO-1 inhibitory activity in Hela cells (Interferon-gamma stimulated HeLa cells, Ehrlich reagent, absorbance 490 nm). Further details: endogenous in cells; host or cells: HeLa cells stimulated with interferon-gamma. As to conditions: Hela Human IDO-1 cellular assay. The test is classed as cell-based. The protocol:
Exemplary compounds were tested for inhibition of IDO activity.
Assessment of Human IDO-1 Inhibitory Activity in Hela Cells
HeLa cells were seeded at 20,000 cells per 30 μL per well with RPMI/phenol red free media containing 10% FBS in a 384-well tissue culture plate (black with clear bottoms). 50 nL of compound was added to cells and incubated at 37° C. for one hour. 20 μL of the recombinant human Interferon-gamma (R&D System, Cat. #285-IF, at final concentration of 10 ng/ml) or recombinant murine Interferon-gamma (PEPROTECH® Inc., Cat. #315-05, final concentration of 5 ng/ml) was added to activate IDO signaling. The cells were incubated for 18 hours in 37° C. incubator with 5% CO2.
Compound treatment was stopped by adding 5 μl trichloroacetic acid to a final concentration of 3%. Subsequently, the cell plate was further incubated at 50° C. for 30 minute. An equal volume supernatant (20 μL) and 2% (w/v) Ehrlich reagent (4-dimethylaminobenzaldehyde) in glacial acetic acid were mixed in a new clear bottom 384-well plate. This plate was incubated at room temperature for 30 minutes. Absorbance at 490 nm was measured on Envision plate reader.
Compound IC50 values were calculated using counts from unstimulated (no INF-gamma treatment) wells as 100% inhibition. INF-gamma treatment without compound treatment as 0% inhibition.

Test [2] concerns the target T1, human IDO1. The test can be described thus: Assessment of human IDO-1 inhibitory activity in HEK cells (human IDO1/HEK293 cells, kynurenine read-out with Ehrlich reagent, absorbance 490 nm). The test is classed as cell-based. Further details: expressed in transfected cells. As to conditions: HEK Human IDO-1 cellular assay. In a few lines:
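Kynurenine output from stably IDO1-transfected HEK293 cells (10,000/well, phenol red-free RPMI, 10% FBS) after 20 h compound exposure at 37 °C. The reaction was stopped with 0.2% TCA and heated 30 min at 50 °C, then the supernatant was mixed with Ehrlich reagent and read at 490 nm. IC50 was set against DMSO and a 500 nM reference standard as 0 and 100% inhibition.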

T1 sequence (P14902 whole entry): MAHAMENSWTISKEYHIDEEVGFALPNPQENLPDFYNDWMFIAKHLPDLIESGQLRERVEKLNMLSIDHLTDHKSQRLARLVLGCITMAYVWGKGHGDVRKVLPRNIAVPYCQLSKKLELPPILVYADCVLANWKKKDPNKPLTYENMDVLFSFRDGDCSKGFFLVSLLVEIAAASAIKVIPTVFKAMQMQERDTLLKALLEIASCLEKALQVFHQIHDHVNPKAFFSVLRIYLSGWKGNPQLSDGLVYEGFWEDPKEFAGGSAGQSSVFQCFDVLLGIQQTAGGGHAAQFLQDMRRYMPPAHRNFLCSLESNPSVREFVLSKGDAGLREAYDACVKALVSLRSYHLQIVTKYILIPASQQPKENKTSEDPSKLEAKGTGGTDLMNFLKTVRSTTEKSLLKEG

On to “3-(4-((1,1-dioxidotetrahydro-2H- thiopyran-4-yl)(ethyl)amino)-3- ((4-fluorophenyl)amino)phenyl)- 4-isopropoxybutanoic acid [Example 340]”, for which, in test [1], the IC50 is < 50 nM. On the same count and under the same terms, the figure for `CCOc1ncc(Nc2cc(C(CC)CC(=O)O)cnc2N(CC(C)C)CC(C)C)cn1` (racemic) [Example 1376, (+/−)-3-(6-(Diisobutylamino)-5-((2-ethoxypyrimidin-5-yl)amino)pyridin-3-yl)pentanoic acid] is < 5 nM; for `CCC(CC(=O)O)c1cnc(N(CC)C2CCOCC2)c(NC(=O)Nc2ccc(C)cc2)c1` (racemic) [Example 1377, (+/−)-3-(6-(Ethyl(tetrahydro-2H-pyran-4-yl)amino)-5-(3-(p-tolyl)ureido)pyridin-3-yl)pentanoic acid] it is < 50 nM; for `CCOc1ncc(Nc2cc(C(CC)CC(=O)O)cnc2N(CC)C2CCOCC2)cn1` (racemic) [Example 1378] it is < 5 nM. As to `CCC(CC(=O)O)c1cnc(N(CC)C2CCOCC2)c(Nc2ccc(C#N)cc2)c1` (racemic) [Example 1379], in test [1], the IC50 is < 5 nM. Take `CCC(CC(=O)O)c1cnc(N(CC)C2CCOCC2)c(Nc2ccc(Cl)cc2)c1` (racemic) [Example 1380]: the IC50 in test [1] was < 5 nM. On to `COCC(CC(=O)O)c1ccc(N2C[C@@H](C)O[C@@H](C)C2)c(Nc2ccc(C#N)cc2)c1` (single isomer, unassigned) [602 E1], for which the IC50 in test [1] was > 50 nM. Regarding `CCC(CC(=O)O)c1ccc(N(CC)C2CCOC2)c(NC(=O)Nc2ccc(Cl)cc2F)c1` (single isomer, unassigned) [948 D2], the IC50 in test [1] was < 50 nM. In the case of `CCC(CC(=O)O)c1ccc(N2CCOCC2)c(Nc2ccc(C#N)cc2)c1` (single isomer, unassigned) [Example 6 Enantiomer 1, 3-(3-((4-Cyanophenyl)amino)-4-morpholinophenyl)pentanoic acid], the IC50 in test [1] is > 50 nM. As for `CCC(CC(=O)O)c1ccc(N2CCOCC2)c(Nc2ccc(C#N)cc2)c1` (single isomer, unassigned) [Example 6 Enantiomer 2, 3-(3-((4-Cyanophenyl)amino)-4-morpholinophenyl)pentanoic acid], the concentration for half-maximal inhibition (IC50) in test [1] was < 50 nM. Same read-out and setting: the figure for `CCOc1ncc(Nc2cc(C(CC)CC(=O)O)ccc2N2CCOCC2)cn1` (single isomer, unassigned) [Example 7 Enantiomer 2, 3-(3-((2-Ethoxypyrimidin-5-yl)amino)-4-morpholinophenyl)pentanoic acid] is > 50 nM. In the case of `CCC(CC(=O)O)c1ccc(N2CCOCC2)c(NC(=O)Nc2ccc(C)cc2)c1` (single isomer, unassigned) [Example 8 Enantiomer 1, 3-(4-Morpholino-3-(3-(p-tolyl)ureido)phenyl)pentanoic acid], in test [1], the IC50 was > 50 nM.

On to `CCC(CC(=O)O)c1ccc(N2CCOCC2)c(NC(=O)Nc2ccc(C)cc2)c1` (single isomer, unassigned) [Example 8 Enantiomer 2, 3-(4-Morpholino-3-(3-(p-tolyl)ureido)phenyl)pentanoic acid], for which the IC50 in test [1] is < 50 nM. Regarding `CCCN(c1ccc(C(CC)CC(=O)O)cc1Nc1ccc(C#N)cc1)C1CCS(=O)(=O)CC1` (single isomer, unassigned) [Example 12 Enantiomer 1, 3-(3-((4-Cyanophenyl)amino)-4-((1,1-dioxidotetrahydro-2H-thiopyran-4-yl)(propyl)amino)phenyl)pentanoic acid], the IC50 in test [1] was < 5 nM. Take `CCCN(c1ccc(C(CC)CC(=O)O)cc1Nc1cnc(OCC)nc1)C1CCS(=O)(=O)CC1` (single isomer, unassigned) [Example 13 Enantiomer 1, 3-(4-((1,1-Dioxidotetrahydro-2h-thiopyran-4-yl)(propyl)amino)-3-((2-ethoxypyrimidin-5-yl)amino)phenyl)pentanoic acid]: the IC50 in test [1] is < 50 nM.

For the compound `CCCN(c1ccc(C(CC)CC(=O)O)cc1NC(=O)Nc1ccc(C)cc1)C1CCS(=O)(=O)CC1` (single isomer, unassigned) [Example 14 Enantiomer 1, 3-(4-((1,1-Dioxidotetrahydro-2h-thiopyran-4-yl)(propyl)amino)-3-(3-(p-tolyl)ureido)phenyl)pentanoic acid], the IC50 in test [1] is > 50 nM. Consider `CCN(c1ccc(C(C)(C)CC(=O)O)cc1NC(=O)Nc1ccc(C)cc1)C1CCOCC1` [Example 167, 3-(4-(Ethyl(tetrahydro-2H-pyran-4-yl)amino)-3-(3-(p-tolyl)ureido)phenyl)-3-methylbutanoic acid], for which the IC50 in test [2] is < 50 nM. For the compound `CC[C@H](CC(=O)O)c1ccc(N(CC(C)C)C2CCS(=O)(=O)CC2)c(Nc2ccc3sc(C)nc3c2)c1` [Example 214, 3-(4-((1,1-Dioxidotetrahydro-2H-thiopyran-4-yl)(isobutyl)amino)-3-((2-methylbenzo[d]thiazol-5-yl)amino)phenyl)pentanoic acid], the IC50 in test [2] is < 50 nM. Consider `CCC(CC(=O)O)c1ccc(N(CC2CC2)C2CCOCC2)c(NC(=O)Nc2ccc(C)cc2)c1` (stereo not shown) [Example 698], for which the IC50 in test [2] was < 50 nM. The same measure, in the same setting: the value for `C[C@@H]1CN(c2ccc(C(C)(C)CC(=O)O)cc2Nc2ccc(C#N)cc2)C[C@H](C)O1` [Example 731, 3-(3-((4-Cyanophenyl)amino)-4-((2S,6R)-2,6-dimethylmorpholino)phenyl)-3-methylbutanoic acid] was < 50 nM. On to `C[C@@H]1CN(c2ccc(C(C)(C)CC(=O)O)cc2Nc2ccc(F)cc2)C[C@H](C)O1` [Example 732, 3-(4-((2S,6R)-2,6-dimethylmorpholino)-3-((4-fluorophenyl)amino)phenyl)-3-methylbutanoic acid], for which the IC50 in test [2] was < 50 nM. The same measure, in the same setting: the value for `C[C@@H]1CN(c2ccc(C(C)(C)CC(=O)O)cc2Nc2ccc(Cl)cc2)C[C@H](C)O1` [Example 733, 3-(3-((4-chlorophenyl)amino)-4-((2S,6R)-2,6-dimethylmorpholino)phenyl)-3-methylbutanoic acid] was < 50 nM. For the compound `CCc1ccc(Nc2cc(C(C)(C)CC(=O)O)ccc2N2C[C@@H](C)O[C@@H](C)C2)cc1` [Example 734, 3-(4-((2S,6R)-2,6-dimethylmorpholino)-3-((4-ethylphenyl)amino)phenyl)-3-methylbutanoic acid], the IC50 in test [2] is > 50 nM. With `COc1ncc(Nc2cc(C(C)(C)CC(=O)O)ccc2N2C[C@@H](C)O[C@@H](C)C2)cn1` [Example 735, 3-(4-((2S,6R)-2,6-dimethylmorpholino)-3-((2-methoxypyrimidin-5-yl)amino)phenyl)-3-methylbutanoic acid], the IC50 in test [2] is > 50 nM. For `CCOc1ncc(Nc2cc(C(C)(C)CC(=O)O)ccc2N2C[C@@H](C)O[C@@H](C)C2)cn1` [Example 736, 3-(4-((2S,6R)-2,6-dimethylmorpholino)-3-((2-ethoxypyrimidin-5-yl)amino)phenyl)-3-methylbutanoic acid], the IC50 in test [2] is > 50 nM. On the same count and under the same terms, the value for `CC(C)(CC(=O)O)c1ccc(N2CCC[C@H]2C(C)(C)O)c(Nc2ccc(F)cc2)c1` [Example 807, (S)-3-(3-((4-Fluorophenyl)amino)-4-(2-(2-hydroxypropan-2-yl)pyrrolidin-1-yl)phenyl)-3-methylbutanoic acid] was > 50 nM. Still for that read-out and setting: the figure for `CC(C)(CC(=O)O)c1ccc(N2CCC[C@H]2C(C)(C)O)c(Nc2ccc(Cl)cc2)c1` [Example 808, (S)-3-(3-((4-chlorophenyl)amino)-4-(2-(2-hydroxypropan-2-yl)pyrrolidin-1-yl)phenyl)-3-methylbutanoic acid] is < 50 nM; for `CC(C)(CC(=O)O)c1ccc(N2CCC[C@H]2C(C)(C)O)c(Nc2ccc(C#N)cc2)c1` [Example 809, (S)-3-(3-((4-cyanophenyl)amino)-4-(2-(2-hydroxypropan-2-yl)pyrrolidin-1-yl)phenyl)-3-methylbutanoic acid] it is < 50 nM. `COC(Cc1ccc(N(CC(C)C)C2CCCCC2)c(NC(=O)Nc2ccc(Cl)cc2F)c1)C(=O)O` (stereo not shown) [Example 1012, 3-(3-(3-(4-Chloro-2-fluorophenyl)ureido)-4-(cyclohexyl(isobutyl)amino)phenyl)-2-methoxypropanoic acid]: the IC50 in test [2] is < 50 nM. For `CCOc1ncc(Nc2cc([C@H](CC)CC(=O)NS(C)(=O)=O)ccc2N(CC)C2CCOCC2)cn1` [Example 1078, 3-(3-((2-Ethoxypyrimidin-5-yl)amino)-4-(ethyl(tetrahydro-2H-pyran-4-yl)amino)phenyl)-N-(methylsulfonyl)pentanamide], the IC50 in test [2] is < 50 nM. With `COCC(CC(=O)O)c1cc(F)c(N(CC(C)C)C2CCCCC2)c(NC(=O)Nc2ccc(OC)cc2F)c1` (stereo not shown) [Example 1159, 3-(4-(cyclohexyl(isobutyl)amino)-3-fluoro-5-(3-(2-fluoro-4-methoxyphenyl)ureido)phenyl)-4-methoxybutanoic acid], the IC50 in test [2] is < 5 nM.
